Data from ChEMBL document CHEMBL3286291, “Synthesis and biological evaluation of substituted 4,6-diarylpyrimidines and 3,5-diphenyl-4,5-dihydro-1H-pyrazoles as anti-tubercular agents” (Bioorg Med Chem Lett, 2014).

How the values were obtained:
[1] = tested on: Mycobacterium tuberculosis; assay: Antitubercular activity against Mycobacterium tuberculosis H37Rv by microplate alamar blue assay; assay type: functional
[2] = Cytotoxicity against human THP1 cells by MTT assay; assay type: cell-based; settings: THP-1 cells
[3] = Selectivity index, ratio of CC50 for human THP1 cells to MIC for Mycobacterium tuberculosis H37Rv; assay type: toxicity, cell-based; settings: THP-1 cells, read-out: Selectivity Index

COc1ccc(-c2cc(-c3cc(OC)c(OC)c(OC)c3)nc(-c3ccncc3)n2)cc1
MIC [1]: > 100 µM

COc1cc(C2CC(c3ccc4c(c3)OCO4)=NN2C(C)=O)cc(OC)c1OC (stereo unspecified)
MIC [1]: 100 µM
CC50 [2]: 200 µM

COc1cc(-c2cc(-c3ccc(F)cc3)nc(N)n2)cc(OC)c1OC
MIC [1]: 50 µM

COc1cc(-c2cc(-c3cc(OC)c(OC)c(OC)c3)nc(-c3ccncc3)n2)cc(OC)c1OC
MIC [1]: > 100 µM

CCSc1nc(Cl)c(C#N)c(-c2ccc(F)cc2F)n1
MIC [1]: 0.78 µg/mL

COc1ccc(-c2cc(-c3cc(OC)c(OC)c(OC)c3)nc(-c3cccnc3)n2)cc1
MIC [1]: 100 µM
CC50 [2]: 200 µM

COc1cc(C2=NN(C(C)=O)C(c3cc(OC)c(OC)c(OC)c3)C2)cc(OC)c1OC (stereo unspecified)
MIC [1]: > 100 µM
CC50 [2]: 200 µM

COc1cc(-c2cc(-c3ccc4c(c3)OCO4)nc(-c3ccncc3)n2)cc(OC)c1OC
MIC [1]: > 100 µM
CC50 [2]: 400 µM

CC1=NN(C(=O)c2cc(-c3ccc(Cl)cc3)n[nH]2)C(=O)/C1=N/Nc1cccc(F)c1
MIC [1]: 0.35 µg/mL

COc1cc(-c2cc(-c3ccc(Br)cc3)nc(N)n2)cc(OC)c1OC
MIC [1]: 50 µM
CC50 [2]: 100 µM

COc1cc(-c2cc(-c3ccc(Cl)cc3)nc(N)n2)cc(OC)c1OC
MIC [1]: 50 µM

COc1ccc(C2CC(c3ccc4c(c3)OCO4)=NN2C(C)=O)cc1 (stereo unspecified)
MIC [1]: 100 µM
CC50 [2]: 200 µM

COc1cc(C2CC(c3ccc(Cl)cc3)=NN2C(C)=O)cc(OC)c1OC (stereo unspecified)
selectivity ratio [3]: 8
MIC [1]: 12.5 µM
CC50 [2]: 100 µM

COc1cc(C2CC(c3ccc(Br)cc3)=NN2C(C)=O)cc(OC)c1OC (stereo unspecified)
selectivity ratio [3]: 8
MIC [1]: 12.5 µM
CC50 [2]: 100 µM

COc1ccc(-c2cc(-c3cc(OC)c(OC)c(OC)c3)nc(-c3ccccn3)n2)cc1
MIC [1]: 25 µM
CC50 [2]: 50 µM

COc1ccc(-c2cc(-c3ccc4c(c3)OCO4)nc(N)n2)cc1
MIC [1]: > 100 µM

COc1cc(-c2cc(-c3ccc4c(c3)OCO4)nc(N)n2)cc(OC)c1OC
MIC [1]: > 100 µM
CC50 [2]: 200 µM

COc1ccc(-c2cc(-c3cc(OC)c(OC)c(OC)c3)nc(N)n2)cc1
selectivity ratio [3]: 4
MIC [1]: 25 µM
CC50 [2]: 100 µM

COc1ccc(C2=NN(C(C)=O)C(c3cc(OC)c(OC)c(OC)c3)C2)cc1 (stereo unspecified)
selectivity ratio [3]: 4
MIC [1]: 50 µM
CC50 [2]: 200 µM

COc1cc(-c2cc(-c3cc(OC)c(OC)c(OC)c3)nc(N)n2)cc(OC)c1OC
MIC [1]: > 100 µM
